In general, IC50 refers to the concentration needed to halve the response being measured. Higher therefore signals lower potency.

Counter-ions that a name gives are not always drawn. Like-named read-outs stand apart in the source and are kept apart here.

Our source for the activation and IC50 values is US8501750B2, “Heterocyclic compound and use thereof” (Takeda Pharmaceutical Company Limited, priority 2007, dated 2013).

One test concerns the target PPARγ (Homo sapiens (Human), UniProt P37231). Description: PPARγ activating action (luciferase reporter in PPARγ:RXRα:4ERPP/CHO-K1 cells). It is filed as cell-based. To be noted: CHO-K1, 24 h, read-out: PPARγ activating action (activation % (1 μM)). The procedure:
Then the medium was removed from the 96-well half area white plate, 45 μl of Ham's F12 medium containing 0.1% fatty acid-free bovine serum albumin (BSA) and 5 μl of test compound were added, and the cells were cultured in a CO2 gas incubator at 37° C. for 1 day. The medium was removed and 20 μl of PicaGene 7.5 [manufactured by Dainippon Ink and Chemicals Corporation, Japan] diluted 2-fold with HBSS (HANKS' BALANCED SALT SOLUTION) [manufactured by BIO WHITTAKER, USA] was added. After stirring, the luciferase activity was determined using 1420 ARVO Multilabel Counter [manufactured by PerkinElmer, USA]. […] A CHO-K1 cell cultured in a 150 cm^2 cell culture flask [manufactured by Corning Costar Corporation, USA] containing Ham's F12 medium [manufactured by INVITROGEN, USA] supplemented with 10% fetal bovine serum [manufactured by INVITROGEN, USA] was scraped by treating with 0.5 g/L trypsin-0.2 g/L EDTA (ethylenediaminetetraacetic acid) [manufactured by Life Technologies, Inc., USA], and then the cell was washed with PBS (Phosphate-buffered saline) [manufactured by INVITROGEN, USA], centrifuged (1000 rpm, 5 minutes) and suspended in PBS. Subsequently, DNA was introduced into the cell under the conditions shown below using GENE PULSER [manufactured by Bio-Rad Laboratories, USA]. […] Subsequently, the cell was transferred into a F12 medium containing 10% fetal bovine serum and cultured for 24 hours, and then the cell was scraped again and centrifuged, and then suspended in Ham's F12 medium containing 10% fetal bovine serum supplemented with 500 μg/ml of Geneticin [manufactured by INVITROGEN, USA] and 250 μg/ml of Zeocin [manufactured by INVITROGEN, USA]. The obtained suspension was diluted to the density of 10^4 cells/ml and inoculated in a 96-well plate [manufactured by Corning Costar Corporation, USA], which was cultured in a CO2 gas incubator at 37° C., whereby obtaining a Geneticin- and Zeocin-resistant transformant.
For orientation: A reporter such as luciferase makes a cellular process visible.

A further test deals with AT1 receptor (Homo sapiens (Human), UniProt P30556). Description: AT1 receptor binding inhibitory action.
Where [1] appears, read: test compound 1 μM, luciferase activity relative to control compound X (1 μM) = 100%, non-administration group = 0%.

Sequence of AT1 receptor (P30556 whole entry): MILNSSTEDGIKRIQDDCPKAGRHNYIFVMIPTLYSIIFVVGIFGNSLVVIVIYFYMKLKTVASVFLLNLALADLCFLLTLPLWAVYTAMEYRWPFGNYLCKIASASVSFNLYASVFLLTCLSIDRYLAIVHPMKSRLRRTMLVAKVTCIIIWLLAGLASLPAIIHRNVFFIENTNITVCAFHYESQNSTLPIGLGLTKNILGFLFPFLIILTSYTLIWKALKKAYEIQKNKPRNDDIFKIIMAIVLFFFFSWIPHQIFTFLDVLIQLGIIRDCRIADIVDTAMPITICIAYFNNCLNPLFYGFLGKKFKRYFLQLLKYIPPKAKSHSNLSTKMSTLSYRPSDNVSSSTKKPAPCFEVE
Sequence of PPARγ (P37231 29-505): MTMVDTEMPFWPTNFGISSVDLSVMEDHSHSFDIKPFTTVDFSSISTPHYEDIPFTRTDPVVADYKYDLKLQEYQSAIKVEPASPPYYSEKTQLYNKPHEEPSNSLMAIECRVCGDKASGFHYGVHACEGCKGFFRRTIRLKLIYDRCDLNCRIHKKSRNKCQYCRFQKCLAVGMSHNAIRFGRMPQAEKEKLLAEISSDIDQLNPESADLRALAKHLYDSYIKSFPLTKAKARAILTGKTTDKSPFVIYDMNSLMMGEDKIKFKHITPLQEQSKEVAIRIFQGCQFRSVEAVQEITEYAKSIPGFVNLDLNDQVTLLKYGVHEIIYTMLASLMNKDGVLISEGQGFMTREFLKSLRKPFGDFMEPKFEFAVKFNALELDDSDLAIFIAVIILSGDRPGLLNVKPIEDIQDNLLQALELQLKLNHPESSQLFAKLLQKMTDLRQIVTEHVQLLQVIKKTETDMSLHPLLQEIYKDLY
Sequence of PPARγ (P19793 whole entry partner): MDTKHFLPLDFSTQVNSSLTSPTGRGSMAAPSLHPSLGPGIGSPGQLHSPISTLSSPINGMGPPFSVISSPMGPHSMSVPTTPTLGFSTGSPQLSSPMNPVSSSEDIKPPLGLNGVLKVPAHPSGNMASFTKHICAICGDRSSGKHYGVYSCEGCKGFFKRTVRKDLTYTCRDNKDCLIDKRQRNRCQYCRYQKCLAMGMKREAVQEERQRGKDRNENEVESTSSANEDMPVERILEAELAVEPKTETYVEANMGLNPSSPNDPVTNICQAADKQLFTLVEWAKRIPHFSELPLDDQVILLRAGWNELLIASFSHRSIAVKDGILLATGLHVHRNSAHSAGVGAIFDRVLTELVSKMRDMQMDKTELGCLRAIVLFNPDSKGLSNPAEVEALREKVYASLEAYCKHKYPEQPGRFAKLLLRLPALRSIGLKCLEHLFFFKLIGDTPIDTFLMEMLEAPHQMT

With `O=c1[nH]c(-c2ccccc2-c2ccc(Cn3c(=O)n(CCc4cccc(F)c4)c(=O)c4cc(CC(F)(F)F)sc43)cc2)no1` [Ex. 60, 3-[2-(3-fluorophenyl)ethyl]-1-{[2′-(5-oxo-4,5-dihydro-1,2,4-oxadiazol-3-yl)biphenyl-4-yl]methyl}-6-(2,2,2-trifluoroethyl)thieno[2,3-d]pyrimidine-2,4(1H,3H)-dione], the activation at 1 µM on PPARγ (setting [1]) stood at 42%. Moreover, the IC50 at AT1 receptor is 1 nM.
With `COc1cccc(C(=O)Cn2c(=O)c3cc(C4CC4)sc3n(Cc3ccc(-c4ccccc4-c4noc(O)n4)cc3)c2=O)c1` [Ex. 107, 6-cyclopropyl-3-[2-(3-methoxyphenyl)-2-oxoethyl]-1-{[2′-(5-oxo-4,5-dihydro-1,2,4-oxadiazol-3-yl)biphenyl-4-yl]methyl}thieno[2,3-d]pyrimidine-2,4(1H,3H)-dione potassium salt], the activation at 1 µM at PPARγ worked out at 43%. This compound returned an IC50 at AT1 receptor of 1.1 nM.
Consider `CCc1cc2c(=O)n(CC3(C)COC3)c(=O)n(Cc3ccc(-c4ccccc4-c4noc(=O)[nH]4)cc3)c2s1` [Ex. 144, 6-ethyl-3-[(3-methyloxetan-3-yl)methyl]-1-{[2′-(5-oxo-4,5-dihydro-1,2,4-oxadiazol-3-yl)biphenyl-4-yl]methyl}thieno[2,3-d]pyrimidine-2,4(1H,3H)-dione], for which the activation at 1 µM at PPARγ (setting [1]) was 40%. The IC50 at AT1 receptor is 1.7 nM.
For `CCc1cc2c(=O)n(CC(=O)c3ccc(OC)cc3)c(=O)n(Cc3c(F)cc(-c4ccccc4-c4noc(=O)[nH]4)cc3F)c2s1` [Ex. 197, 1-{[3,5-difluoro-2′-(5-oxo-4,5-dihydro-1,2,4-oxadiazol-3-yl)biphenyl-4-yl]methyl}-6-ethyl-3-[2-(4-methoxyphenyl)-2-oxoethyl]thieno[2,3-d]pyrimidine-2,4(1H,3H)-dione] the same measures were 67% and 1.4 nM.
For `CCc1cc2c(=O)n(CC(=O)c3ccc(OC)cc3F)c(=O)n(Cc3ccc(-c4ccccc4-c4noc(=O)[nH]4)cc3)c2s1` [Ex. 73, 6-ethyl-3-[2-(2-fluoro-4-methoxyphenyl)-2-oxoethyl]-1-{[2′-(5-oxo-4,5-dihydro-1,2,4-oxadiazol-3-yl)biphenyl-4-yl]methyl}thieno[2,3-d]pyrimidine-2,4(1H,3H)-dione], in that order: 35% and 1.5 nM.
Take `CCc1cc2c(=O)n(CC(C)(C)C)c(=O)n(Cc3ccc(-c4ccccc4-c4noc(=O)[nH]4)cc3)c2s1` [Ex. 154, 3-(2,2-dimethylpropyl)-6-ethyl-1-{[2′-(5-oxo-4,5-dihydro-1,2,4-oxadiazol-3-yl)biphenyl-4-yl]methyl}thieno[2,3-d]pyrimidine-2,4(1H,3H)-dione]: the activation at 1 µM on PPARγ (setting [1]) is 51%. The same compound had an IC50 at AT1 receptor of 1.9 nM.
For `Cc1ccc(CCn2c(=O)c3cc(CC(F)(F)F)sc3n(Cc3ccc(-c4ccccc4-c4noc(=O)[nH]4)cc3)c2=O)cc1` [Ex. 59, 3-[2-(4-methylphenyl)ethyl]-1-{[2′-(5-oxo-4,5-dihydro-1,2,4-oxadiazol-3-yl)biphenyl-4-yl]methyl}-6-(2,2,2-trifluoroethyl)thieno[2,3-d]pyrimidine-2,4(1H,3H)-dione] the same measures were 58% and 1.2 nM.
As to `CCc1cc2c(=O)n(CC(=O)C(C)(C)COC(C)=O)c(=O)n(Cc3ccc(-c4ccccc4-c4noc(=O)[nH]4)cc3)c2s1` [Ex. 148, 4-[6-ethyl-2,4-dioxo-1-{[2′-(5-oxo-4,5-dihydro-1,2,4-oxadiazol-3-yl)biphenyl-4-yl]methyl}-1,4-dihydrothieno[2,3-d]pyrimidin-3(2H)-yl]-2,2-dimethyl-3-oxobutyl acetate], the activation at 1 µM at PPARγ (setting [1]) turned out to be 33%. The same compound displayed an IC50 on AT1 receptor of 1.5 nM.
`CCc1cc2c(=O)n(CC(=O)c3ccc(OC)cc3)c(=O)n(Cc3ccc(-c4ccc(F)cc4-c4noc(=O)[nH]4)cc3)c2s1` [Ex. 198, 6-ethyl-1-{[4′-fluoro-2′-(5-oxo-4,5-dihydro-1,2,4-oxadiazol-3-yl)biphenyl-4-yl]methyl}-3-[2-(4-methoxyphenyl)-2-oxoethyl]thieno[2,3-d]pyrimidine-2,4(1H,3H)-dione]: the activation at 1 µM on PPARγ (setting [1]) is 36%. This compound returned an IC50 on AT1 receptor of 1.5 nM.
For `CCc1cc2c(=O)n(CC(=O)c3sccc3Br)c(=O)n(Cc3ccc(-c4ccccc4-c4noc(=O)[nH]4)cc3)c2s1` [Ex. 222, 3-[2-(3-bromo-2-thienyl)-2-oxoethyl]-6-ethyl-1-{[2′-(5-oxo-4,5-dihydro-1,2,4-oxadiazol-3-yl)biphenyl-4-yl]methyl}thieno[2,3-d]pyrimidine-2,4(1H,3H)-dione], in that order: 32% and 1.9 nM.
On to `O=C(Cn1c(=O)c2cc(CC(F)(F)F)sc2n(Cc2ccc(-c3ccccc3-c3noc(=O)[nH]3)cc2)c1=O)C1CCCCC1` [Ex. 136, 3-(2-cyclohexyl-2-oxoethyl)-1-{[2′-(5-oxo-4,5-dihydro-1,2,4-oxadiazol-3-yl)biphenyl-4-yl]methyl}-6-(2,2,2-trifluoroethyl)thieno[2,3-d]pyrimidine-2,4(1H,3H)-dione], for which, at PPARγ (setting [1]), the activation at 1 µM was 36%. Besides, the IC50 at AT1 receptor was determined as 1.5 nM.
Regarding `COc1ccc(C(=O)Cn2c(=O)c3cc(C4CC4)sc3n(Cc3ccc(-c4ccccc4-c4noc(O)n4)cc3F)c2=O)cc1` [Ex. 105, 6-cyclopropyl-1-{[3-fluoro-2′-(5-oxo-4,5-dihydro-1,2,4-oxadiazol-3-yl)biphenyl-4-yl]methyl}-3-[2-(4-methoxyphenyl)-2-oxoethyl]thieno[2,3-d]pyrimidine-2,4(1H,3H)-dione potassium salt], the activation at 1 µM at PPARγ was 34%. This compound gave an IC50 at AT1 receptor of 1 nM.
Consider `CCc1cc2c(=O)n(C/C(=N/OC)C(C)(C)C)c(=O)n(Cc3ccc(-c4ccccc4-c4noc(=O)[nH]4)cc3)c2s1` [Ex. 142, 6-ethyl-3-[2-(methoxyimino)-3,3-dimethylbutyl]-1-{[2′-(5-oxo-4,5-dihydro-1,2,4-oxadiazol-3-yl)biphenyl-4-yl]methyl}thieno[2,3-d]pyrimidine-2,4(1H,3H)-dione], for which the activation at 1 µM on PPARγ (setting [1]) was determined as 38%. Moreover, the IC50 on AT1 receptor was determined as 1.5 nM.
`CC(C)(C)C(=O)Cn1c(=O)c2cc(C3CC3)sc2n(Cc2ccc(-c3ccccc3-c3noc(=O)[nH]3)cc2)c1=O` [Ex. 186, 6-cyclopropyl-3-(3,3-dimethyl-2-oxobutyl)-1-{[2′-(5-oxo-4,5-dihydro-1,2,4-oxadiazol-3-yl)biphenyl-4-yl]methyl}thieno[2,3-d]pyrimidine-2,4(1H,3H)-dione]: the activation at 1 µM on PPARγ (setting [1]) turned out to be 52%. Besides, the IC50 at AT1 receptor came to 1.2 nM.
Turning to `CCc1cc2c(=O)n(CC(=O)c3cccs3)c(=O)n(Cc3ccc(-c4ccccc4-c4noc(=O)[nH]4)cc3)c2s1` [Ex. 221, 6-ethyl-1-{[2′-(5-oxo-4,5-dihydro-1,2,4-oxadiazol-3-yl)biphenyl-4-yl]methyl}-3-[2-oxo-2-(2-thienyl)ethyl]thieno[2,3-d]pyrimidine-2,4(1H,3H)-dione], on PPARγ (setting [1]), the activation at 1 µM amounted to 47%. In addition, the IC50 at AT1 receptor worked out at 1.4 nM.
As to `CCc1cc2c(=O)n(CC(=O)c3ccccc3)c(=O)n(Cc3ccc(-c4ccccc4-c4noc(=O)[nH]4)cc3)c2s1` [Ex. 209, 6-ethyl-1-{[2′-(5-oxo-4,5-dihydro-1,2,4-oxadiazol-3-yl)biphenyl-4-yl]methyl}-3-(2-oxo-2-phenylethyl)thieno[2,3-d]pyrimidine-2,4(1H,3H)-dione], on PPARγ (setting [1]), the activation at 1 µM was determined as 66%. Besides, the IC50 at AT1 receptor stood at 1.4 nM.
For `O=c1[nH]c(-c2ccccc2-c2ccc(Cn3c(=O)n(CCc4ccc(Cl)cc4)c(=O)c4cc(CC(F)(F)F)sc43)cc2)no1` [Ex. 58, 3-[2-(4-chlorophenyl)ethyl]-1-{[2′-(5-oxo-4,5-dihydro-1,2,4-oxadiazol-3-yl)biphenyl-4-yl]methyl}-6-(2,2,2-trifluoroethyl)thieno[2,3-d]pyrimidine-2,4(1H,3H)-dione], in that order: 27% and 1.6 nM.
For `CCc1cc2c(=O)n(CC(=O)c3ccccc3OC)c(=O)n(Cc3ccc(-c4ccccc4-c4noc(O)n4)cc3)c2s1` [Ex. 109, 6-ethyl-3-[2-(2-methoxyphenyl)-2-oxoethyl]-1-{[2′-(5-oxo-4,5-dihydro-1,2,4-oxadiazol-3-yl)biphenyl-4-yl]methyl}thieno[2,3-d]pyrimidine-2,4(1H,3H)-dione potassium salt], on PPARγ, the activation at 1 µM turned out to be 64%. Further, the IC50 on AT1 receptor came out at 1.4 nM.
